In article PMC7496096, “Functional Characterisation of ClpP Mutations Conferring Resistance to Acyldepsipeptide Antibiotics in Firmicutes” (Chembiochem, 2020):
Converted amounts (≈) assume the structure as drawn.

Legend:
B. subtilis RC4 = assay type: cell-based, Bacillus subtilis; settings: resistant clone of B. subtilis 168; G insertion, frame shift, premature stop (E163→STOP)
Experimental: (§1) Determination of antibacterial activity: ADEP1 was purified from the culture supernatant of S. hawaiiensis NRRL 15010 as described.4 ADEPs 2, 4, 7, 9 were custom synthesised by EMC Microcollections, Tübingen, or provided by AiCuris, Wuppertal, Germany. The minimal inhibitory concentration (MIC) was determined by broth microdilution in Mueller‐Hinton broth (without cation adjustment) according to the guidelines of the Clinical Laboratory Standards Institute (CLSI).69 The inoculum was set to 5×10^4 CFU mL^−1 to allow some distance to the determined spontaneous resistance frequencies. […] All other ADEPs were used from DMSO stock solutions kept at −20 °C.
(§2) Screening for ADEP‐resistant mutants and determination of resistance rates: Single colonies of wild‐type strains grown on Mueller‐Hinton agar plates overnight were suspended in sterile saline and a final inoculum of 5×10^6 cells was spread on plates supplemented with different ADEP congeners at 4× and 10× the MIC. For B. subtilis strain 3xclpP, ADEP7‐containing Mueller‐Hinton agar plates were additionally supplemented with 1 mM IPTG. Resistant colonies were counted after 24 h at 37 °C and colonies were randomly chosen for MIC determinations and sequencing. Mutations in the clpP gene of the respective isolated mutants were analysed by amplifying the clpP gene (and upstream promoter region) by PCR and sequencing of the resulting PCR amplicons (LGC genomics). Sequencing data were analysed by using SnapGene software (GSL Biotech).

B. subtilis RC2 = assay type: cell-based, Bacillus subtilis; settings: resistant clone of B. subtilis 168; ClpP L3→STOP, premature stop
Experimental: as §1, §2

B. subtilis RC1 = assay type: cell-based, Bacillus subtilis; settings: resistant clone of B. subtilis 168; ClpP E156→STOP, premature stop
Experimental: as §1, §2

B. subtilis RC6 = assay type: cell-based, Bacillus subtilis; settings: resistant clone of B. subtilis 168; ClpP N65→N; Y183→F (C-terminus; α7)
Experimental: as §1, §2

B. subtilis RC12 = assay type: cell-based, Bacillus subtilis; settings: resistant clone of B. subtilis 168; ClpP A101→T (ClpP core; α4)
Experimental: as §1, §2

B. subtilis RC11 = assay type: cell-based, Bacillus subtilis; settings: resistant clone of B. subtilis 168; ClpP Q132→STOP, premature stop
Experimental: as §1, §2

B. subtilis RC7 = assay type: cell-based, Bacillus subtilis; settings: resistant clone of B. subtilis 168; ClpP Q132→STOP, premature stop
Experimental: as §1, §2

wild-type SaClpP = experiment: Suc-LY-AMC peptide degradation by ADEP-activated ClpP; assay type: biochemical, Staphylococcus aureus; settings: 1 μM SaClpP, 100 μM Suc-LY-AMC, 32 °C, 15 min pre-incubation; Figure 6B
Experimental: Peptide and protein degradation assays: Degradation assays with the fluorogenic peptide substrate Suc‐Leu‐Tyr‐7‐amino‐4‐methylcoumarin (Suc‐LY‐AMC) were performed in either BsClpP (50 mM Tris‐HCl, 25 mM MgCl2, 200 mM KCl, 2 mM DTT, pH 8) or SaClpP activity buffer (100 mM HEPES pH 7, 100 mM NaCl) in black, flat‐bottom‐96‐well plates (Sarstedt) with a total reaction volume of 100 μl and reaction temperatures of 32 °C and 37 °C for SaClpP and BsClpP, respectively. Purified ClpP proteins (final concentrations as indicated in the respective experiments) and ADEP2 (applied in 1 μl from a DMSO stock solution) were mixed and pre‐incubated for 15 min at reaction temperatures. […] Fluorophore release upon peptide hydrolysis was read out in a Tecan Infinite M200Pro plate reader (excitation/emission: 380/460 nm) every 30–60 s for 1 h. […] SaClpP (1 μM) and ADEP2 (concentrations as indicated) were pre‐incubated at 32 °C for 15 min before initiating the reaction by addition of FITC – casein (20 μM final concentration) and fluorescence readout (excitation/emission: 485/535 nm). In both assays, enzyme velocity was determined by linear regression of the initial segment of the fluorescence‐time plot in GraphPad Prism 5. […] Decrease of fluorescence was monitored at an emission wavelength of 535 nm in white, flat‐bottom 96‐well‐plates (Greiner). […]

S. aureus ATCC 29213 = experiment: microbe, parasite or virus in culture; assay type: cell-based, Staphylococcus aureus; settings: broth microdilution, Mueller-Hinton broth (without cation adjustment), CLSI, inoculum 5×10^4 CFU mL^−1; wild type
Experimental: as §1

S. aureus 133 = experiment: microbe, parasite or virus in culture; assay type: cell-based, Staphylococcus aureus; settings: broth microdilution, Mueller-Hinton broth (without cation adjustment), CLSI, inoculum 5×10^4 CFU mL^−1; wild type
Experimental: as §1

E. faecalis ATCC 29212 = experiment: microbe, parasite or virus in culture; assay type: cell-based, Enterococcus faecalis; settings: broth microdilution, Mueller-Hinton broth (without cation adjustment), CLSI, inoculum 5×10^4 CFU mL^−1; wild type
Experimental: as §1

S. pneumoniae G9A = assay type: cell-based, Streptococcus pneumoniae; settings: broth microdilution, Mueller-Hinton broth; wildtype
Experimental: as §1

E. faecium RC2 = assay type: cell-based, Enterococcus faecium; settings: resistant clone of E. faecium L4001; insertion of IS30 family transposase between promotor and start codon, no expression
Experimental: as §1, §2

E. faecium RC3 = assay type: cell-based, Enterococcus faecium; settings: resistant clone of E. faecium L4001; ClpP G127→A (equatorial interface)
Experimental: as §1, §2

E. faecium RC1 = assay type: cell-based, Enterococcus faecium; settings: resistant clone of E. faecium L4001; ClpP I29→T, ADEP binding site
Experimental: as §1, §2

Structure (SMILES): C[C@@H]1C[C@H]2C(=O)OC[C@H](NC(=O)[C@H](Cc3cc(F)cc(F)c3)NC(=O)CCC3CCCCC3)C(=O)N3CCC[C@H]3C(=O)N3CCCC[C@H]3C(=O)N[C@@H](C)C(=O)N2C1 [ADEP2]
- MIC (B. subtilis RC4): >64 µg/mL
- MIC (B. subtilis RC2): >64 µg/mL
- MIC (B. subtilis RC1): >64 µg/mL
- MIC (B. subtilis RC6): >64 µg/mL
- MIC (B. subtilis RC12): >64 µg/mL
- MIC (B. subtilis RC11): >64 µg/mL
- MIC (B. subtilis RC7): >64 µg/mL
- concentration sufficient for full catalytic stimulation (Suc-LY-AMC degradation) (wild-type SaClpP): 3 µM
- MIC (S. aureus ATCC 29213): 0.125 µg/mL (≈ 0.156 µM)
- MIC (S. aureus 133): 0.031 µg/mL (≈ 0.0388 µM)
- MIC (E. faecalis ATCC 29212): ≤0.031 µg/mL
- MIC (S. pneumoniae G9A): ≤0.063 µg/mL
- MIC (E. faecium RC2): >16 µg/mL
- MIC (E. faecium RC3): 4 µg/mL (≈ 5.01 µM)
- MIC (E. faecium RC1): 0.125 µg/mL (≈ 0.156 µM)
